Assay results reported in patent US20250084039A1, “4-SUBSTITUTED AMINOISOQUINOLINE DERIVATIVES” (Purdue Research Foundation, priority 2016, published 2025).
Where two headings read alike, the source gives them in different places.

Columns and labels:
Assay type in all cases: cell-based
MCF-7 = assay: Proliferation inhibition at single concentration (CellTiter-Blue); settings: for Percent inhibition of proliferation MCF-7: 1 μM compound
Description: (§1) Plates were then treated with compound diluted in dimethyl sulfoxide (DMSO) as well as a DMSO control the following day for 72 hours. After this time the plates were then treated with 10 μL of CellTiter-Blue Cell Viability Assay (Promega, Madison, WI) for 4 hours. Then the plates were read on a plate reader (Bio-Tek, Winooski, VT). Data was analyzed on Excel as a percent of the DMSO vehicle.
(§2) Antiproliferative activities against AML cell line, MV4-11 (a FLT3-driven cell line) and three other solid tumors (MCF7, breast, HCT116, colon and HeLa) have been investigated (Tables 6A and 6B and FIG. 10).

HeLa = assay: as above; settings: for Percent inhibition of proliferation HeLa: 1 μM compound
Description: as §1, §2

HCT116 = assay: as above; settings: 1 μM compound
MV-4-11 = assay: as above; settings: 1 μM compound
K562 = assay: IC50 proliferation assay (Alamar Blue, 72 h)
Description: IC50 proliferation assay—Cell lines and primary cells were seeded into 96-well plates the afternoon prior to treatment. Approximately 18 hours later, compounds were semi-serially diluted in dimethyl sulfoxide (DMSO) and then growth medium, and added to cells. Plates were incubated for 72 hours prior to addition of Alamar Blue (Life Technologies, Carlsbad, CA). Plates were read after 4 additional hours of incubation at 37° C. using a Bio-Tek Synergy HT plate reader (Bio-Tek, Winooski, VT). Data was analyzed and graphed using GraphPad Prism Software (Graphpad, La Jolla. CA).
IC50 (proliferation inhibition) against leukemia cell lines MV4-11 and K562. […] MiaPaca-2 (Pancreatic cell line), HLY-1 (Lymphoma cell line), MV4-11 (AML, cell line) and K562 (CML cell line).

[1] = Homo sapiens, K562, Table 18, read-out: Inhibition of proliferation of K562 cell lines (CML)
[2] = Table 18, read-out: Inhibition of proliferation of K562 cell lines (CML)

Row | IC50 (K562; [2]) [nM] | Compound | Percent inhibition of proliferation MCF-7 (MCF-7) [%] | Percent inhibition of proliferation HeLa (HeLa) [%] | Percent inhibition of proliferation HCT116 (HCT116) [%] | Percent inhibition of proliferation MV-4-11 (MV-4-11) [%] | other results
1 |  | CCN(CC)CC(O)CNC(=O)c1ccc(C)c(C#Cc2c(N)ncc3ccc(Cl)cc23)c1 (stereo not drawn) [HSN185] | 100 | 99 | 67 | 97 | 
2 |  | Cc1ccc(C(=O)Nc2ccc(CN3CCN(C)CC3)c(C(F)(F)F)c2)cc1C#Cc1c(N)ncc2cc(Cl)c(Cl)cc12 [HSN393, 3-((3-amino-6,7-dichloroisoquinolin-4-yl)ethynyl)-4-methyl-N-(4-((4-methylpiperazin-1-yl)methyl)-3-(trifluoromethyl)phenyl)benzamide] |  |  |  |  | IC50 (K562; [1]): 7.3 ± 0.04 nM
3 | 30.1 ± 0.19 | Cc1ccc(C(=O)NCCN2CCCC2)cc1C#Cc1c(N)ncc2ccc(Cl)cc12 [HSL41] |  |  |  |  | 
4 | 94.5 ± 0.1 | Cc1ccc(C(=O)NCCN2CCCCC2)cc1C#Cc1cnc(N)c2ccccc12 [HSL58] |  |  |  |  | 
5 |  | Nc1ncc2ccc(Cl)cc2c1C#Cc1ccc(C(=O)NCCCN2CCOCC2)cc1 [HSM1610] | 29 | 20 | 39 | 90 | 
6 | 95.4 ± 0.23 | Cc1ccc(C(=O)NCCCN2CCCCC2)cc1C#Cc1c(N)ncc2ccc(Cl)cc12 [HSL56] |  |  |  |  | 
7 |  | Cc1ccc(C(=O)Nc2ccc(CN3CCN(C)CC3)c(C(F)(F)F)c2)cc1C#Cc1c(N)nc(C)c2ccccc12 [HSN375, 3-((3-amino-1-methylisoquinolin-4-yl)ethynyl)-4-methyl-N-(4-((4-methylpiperazin-1-yl)methyl)-3-(trifluoromethyl)phenyl)benzamide] |  |  |  |  | IC50 (K562; [1]): 8.8 ± 0.4 nM
8 |  | Nc1ncc2ccc(Cl)cc2c1C#Cc1cccc(C(=O)NCCc2c[nH]cn2)c1 [HSN157] | 21 | 33 | 12 | 96 | 
9 | 43.5 ± 0.14 | Cc1ccc(C(=O)NCCN2CCCCC2)cc1C#Cc1cnc2cccnn12 [HSL44] |  |  |  |  | 
10 |  | COc1cc2nc(N)nc(C#Cc3cc(C(=O)NCc4ccc(OCCN(C)C)cc4)ccc3C)c2cc1OC [HSN317, 3-((2-amino-6,7-dimethoxyquinazolin-4-yl)ethynyl)-N-(4-(2-(dimethylamino)ethoxy)benzyl)-4-methylbenzamide] |  |  |  |  | IC50 (K562; Homo sapiens, K562, 72 h, read-out: IC50 (proliferation inhibition) Cell line - K562): 1480 nM; IC50 (K562; [1]): 1483 ± 0.1 nM
11 |  | CC(C)(C)OC(=O)NC1CCN(C(=O)c2ccc(C#Cc3c(N)ncc4ccc(Cl)cc34)cc2)CC1 [HSN139] | 60 | 35 | 32 | 95 | 
12 |  | Nc1ncc2ccc(Cl)cc2c1C#Cc1ccc(C(=O)NCCc2c[nH]cn2)cc1 [HSN145] | 6 | 11 | 35 | 99 | 
13 | 10.1 ± 0.1 | Cc1ccc(C(=O)NCCN2CCOCC2)cc1C#Cc1c(N)ncc2ccc(Cl)cc12 [HSL43] |  |  |  |  | 
14 |  | Nc1ncc2ccc(Cl)cc2c1C#Cc1ccc(C(=O)NCC(O)CN2CCCC2)cc1 (stereo not drawn) [HSM1750] | 17 | 11 | 20 | 93 | 
15 |  | Nc1ncc2ccc(Cl)cc2c1C#Cc1cccc(C(=O)NCC(O)CN2CCCC2)c1 (stereo not drawn) [HSM1751] | 47 | 23 | 32 | 91 | 
16 |  | CN(C)CC(O)CNC(=O)c1cccc(C#Cc2c(N)ncc3ccc(Cl)cc23)c1 (stereo not drawn) [HSN161] | 91 | 70 | 18 | 97 | 
17 |  | Nc1ncc2ccc(Cl)cc2c1C#Cc1ccc(C2=NC(C3CC3)CN2)cc1 (stereo not drawn) [Compound 1703] |  |  |  |  | activity against MCF-7 in words (MCF-7; FIG. 2): potent; activity against HeLa in words (HeLa; FIG. 3): potent
18 | 25.3 ± 0.1 | Cc1ccc(C(=O)NCCN2CCCCC2)cc1C#Cc1cnc(N)c2ncccc12 [HSL45] |  |  |  |  | 
19 | 161.1 ± 0.11 | Cc1ccc(C(=O)NCCN2CCN(C)CC2)cc1C#Cc1c(N)ncc2ccc(Cl)cc12 [HSL47] |  |  |  |  | 
